Patent US9328106B2, “Cyclic ether pyrazol-4-yl-heterocyclyl-carboxamide compounds and methods of use” (Genentech, Inc., priority 2012, dated 2016)
pKi: −log10 of the molar value.

Molecular target: PIM1 (Homo sapiens (Human), UniProt P11309)
Experiment: biochemical
Type: biochemical
Conditions: 20 pM PIM1, 1 μM FAM-peptide, 10 μM ATP, 90 minutes at room temperature; read-out: PIM1 LC3K (KI)

Chain of PIM1 (P11309 whole entry): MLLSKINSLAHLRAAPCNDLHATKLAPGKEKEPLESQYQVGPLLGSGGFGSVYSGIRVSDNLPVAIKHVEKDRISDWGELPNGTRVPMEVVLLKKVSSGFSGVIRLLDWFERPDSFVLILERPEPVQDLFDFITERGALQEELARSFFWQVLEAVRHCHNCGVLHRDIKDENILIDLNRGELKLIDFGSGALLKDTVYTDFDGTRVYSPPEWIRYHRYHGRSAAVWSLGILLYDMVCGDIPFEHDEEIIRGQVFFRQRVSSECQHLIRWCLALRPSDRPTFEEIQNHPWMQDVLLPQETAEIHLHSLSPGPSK

Row | Compound | pKi
1 | Cn1ncc(NC(=O)c2ccc(F)c(-c3c(F)cccc3F)n2)c1[C@@H]1CC[C@@H](N)[C@H](F)CO1 [Example 195, N-(5-((2S,5R,6S)-5-amino-6-fluorooxepan-2-yl)-1-methyl-1H-pyrazol-4-yl)-6-(2,6-difluorophenyl)-5-fluoropicolinamide] | 10.60
2 | Cn1ncc(NC(=O)c2nc(-c3cccc(F)c3C(F)(F)F)sc2N)c1[C@@H]1CC[C@@H](N)[C@H](F)CO1 [Example 336, 5-amino-N-(5-((2S,5R,6S)-5-amino-6-fluorooxepan-2-yl)-1-methyl-1H-pyrazol-4-yl)-2-(3-fluoro-2-(trifluoromethyl)phenyl)thiazole-4-carboxamide] | 9.73
3 | Cc1c(-c2nc(C(=O)Nc3cnn(C)c3[C@@H]3CC[C@@H](N)[C@@H](F)CO3)c(N)s2)cnn1C [Example 255, 5-amino-N-(5-((2S,5R,6R)-5-amino-6-fluorooxepan-2-yl)-1-methyl-1H-pyrazol-4-yl)-2-(1,5-dimethyl-1H-pyrazol-4-yl)thiazole-4-carboxamide] | 11.15
4 | Cn1ncc(NC(=O)c2nc(-c3c(F)cccc3F)sc2N)c1C1CC(F)(F)CC(N)CO1 (stereo not drawn) [Example 132, 5-amino-N-[5-(6-amino-4,4-difluoro-oxepan-2-yl)-1-methyl-pyrazol-4-yl]-2-(2,6-difluorophenyl)thiazole-4-carboxamide] | 10.85
5 | CO[C@H]1CO[C@H](c2c(NC(=O)c3nc(-c4cccc(F)c4F)sc3N)cnn2C)CC[C@H]1N [Example 219, 5-amino-N-(5-((2S,5R,6R)-5-amino-6-methoxyoxepan-2-yl)-1-methyl-1H-pyrazol-4-yl)-2-(2,3-difluorophenyl)thiazole-4-carboxamide] | 10.30
6 | Cn1ncc(NC(=O)c2nc(-c3c(F)cccc3F)sc2N)c1[C@H]1OC[C@H](CN)CO1 [Example 167, 5-Amino-N-[5-[5-(aminomethyl)-1,3-dioxan-2-yl]-1-methyl-pyrazol-4-yl]-2-(2,6-difluorophenyl)thiazole-4-carboxamide] | 10.54
7 | Cn1ncc(NC(=O)c2nc(-c3c(F)cccc3F)sc2N)c1[C@H]1CCC(F)[C@@H](N)CO1 (stereo in doubt) [Example 145, 5-Amino-N-[5-[6-amino-5-fluoro-oxepan-2-yl]-1-methyl-pyrazol-4-yl]-2-(2,6-difluorophenyl)thiazole-4-carboxamide] | 9.45
8 | Cc1nn(C)cc1-c1nc(C(=O)Nc2cnn(C)c2[C@@H]2CC[C@@H](N)[C@H](F)CO2)cs1 [Example 241, N-(5-((2S,5R,6S)-5-amino-6-fluorooxepan-2-yl)-1-methyl-1H-pyrazol-4-yl)-2-(1,3-dimethyl-1H-pyrazol-4-yl)thiazole-4-carboxamide] | 9.55
9 | Cn1ncc(NC(=O)c2csc(-c3ccccc3C(F)F)n2)c1[C@@H]1CC[C@@H](N)[C@H](F)CO1 [Example 298, N-(5-((2S,5R,6S)-5-amino-6-fluorooxepan-2-yl)-1-methyl-1H-pyrazol-4-yl)-2-(2-(difluoromethyl)phenyl)thiazole-4-carboxamide] | 9.11
10 | Cn1ncc(NC(=O)c2nc(-c3cc(Cl)ccc3F)sc2N)c1[C@@H]1CC[C@@H](N)[C@H](F)CO1 [Example 291, 5-amino-N-(5-((2S,5R,6S)-5-amino-6-fluorooxepan-2-yl)-1-methyl-1H-pyrazol-4-yl)-2-(5-chloro-2-fluorophenyl)thiazole-4-carboxamide] | 10.74
11 | Cn1ncc(NC(=O)c2nc(-c3c(F)cccc3F)sc2N)c1[C@H]1CC(F)[C@@H](N)CCO1 (stereo partly drawn) [Example 151, 5-Amino-N-[5-[(2R,5S)-5-amino-4-fluoro-oxepan-2-yl]-1-methyl-pyrazol-4-yl]-2-(2,6-difluorophenyl)thiazole-4-carboxamide] | 10.17
12 | COc1ccc(-c2nc(C(=O)Nc3cnn(C)c3[C@@H]3CC[C@@H](N)[C@H](F)CO3)ccc2F)c(F)c1 [Example 226, N-(5-((2S,5R,6S)-5-amino-6-fluorooxepan-2-yl)-1-methyl-1H-pyrazol-4-yl)-5-fluoro-6-(2-fluoro-4-methoxyphenyl)picolinamide] | 10.44
13 | Cn1ncc(NC(=O)c2ccc(F)c(-c3c(F)cccc3F)n2)c1[C@@H]1CC[C@@H](N)[C@H](F)CO1 [Example 397, N-[5-[(2S,5R,6S)-5-amino-6-fluoro-oxepan-2-yl]-1-methyl-pyrazol-4-yl]-6-(2,6-difluorophenyl)-5-fluoro-pyridine-2-carboxamide] | 10.80
14 | Cn1ncc(NC(=O)c2csc(-c3c(F)cccc3F)n2)c1[C@H]1CC[C@H](N)[C@@H](O)CO1 [Example 353, N-(5-((2R,5S,6R)-5-amino-6-hydroxyoxepan-2-yl)-1-methyl-1H-pyrazol-4-yl)-2-(2,6-difluorophenyl)thiazole-4-carboxamide] | 9.95
15 | Cn1ncc(NC(=O)c2csc(-c3c(F)cc4c(c3F)OCC4)n2)c1[C@@H]1CC[C@@H](N)[C@H](F)CO1 [Example 391, N-(5-((2S,5R,6S)-5-amino-6-fluorooxepan-2-yl)-1-methyl-1H-pyrazol-4-yl)-2-(5,7-difluoro-2,3-dihydrobenzofuran-6-yl)thiazole-4-carboxamide] | 10.62
16 | Cn1ncc(NC(=O)c2csc(-c3ccccc3C(F)(F)F)n2)c1[C@@H]1CC[C@@H](N)[C@H](F)CO1 [Example 311, N-(5-((2S,5R,6S)-5-amino-6-fluorooxepan-2-yl)-1-methyl-1H-pyrazol-4-yl)-2-(2-(trifluoromethyl)phenyl)thiazole-4-carboxamide] | 8.78
17 | Cn1ncc(NC(=O)c2csc(-c3c(F)cccc3F)n2)c1[C@@H]1CC[C@@H](N)[C@H](O)CO1 [Example 352, N-(5-((2S,5R,6S)-5-amino-6-hydroxyoxepan-2-yl)-1-methyl-1H-pyrazol-4-yl)-2-(2,6-difluorophenyl)thiazole-4-carboxamide] | 9.76
18 | Cn1ncc(NC(=O)c2ccc(F)c(-c3c(F)cc(OC4CCOCC4)cc3F)n2)c1[C@@H]1CC[C@@H](N)[C@H](F)CO1 [Example 197, N-(5-((2S,5R,6S)-5-Amino-6-fluorooxepan-2-yl)-1-methyl-1H-pyrazol-4-yl)-6-(2,6-difluoro-4-((tetrahydro-2H-pyran-4-yl)oxy)phenyl)-5-fluoropicolinamide] | 10.74
19 | Cn1ncc(NC(=O)c2csc(-n3cccn3)n2)c1[C@@H]1CC[C@@H](N)[C@H](F)CO1 [Example 388, N-(5-((2S,5R,6S)-5-amino-6-fluorooxepan-2-yl)-1-methyl-1H-pyrazol-4-yl)-2-(1H-pyrazol-1-yl)thiazole-4-carboxamide] | 9.80
20 | COc1ccc(-c2nc(C(=O)Nc3cnn(C)c3[C@@H]3CC[C@@H](N)[C@H](F)CO3)cs2)c(F)c1 [Example 293, N-(5-((2S,5R,6S)-5-amino-6-fluorooxepan-2-yl)-1-methyl-1H-pyrazol-4-yl)-2-(2-fluoro-4-methoxyphenyl)thiazole-4-carboxamide] | 10.23
21 | CO[C@H]1CO[C@H](c2c(NC(=O)c3nc(-c4cc(F)cc(F)c4F)sc3N)cnn2C)CC[C@H]1N [Example 263, 5-amino-N-(5-((2S,5R,6R)-5-amino-6-methoxyoxepan-2-yl)-1-methyl-1H-pyrazol-4-yl)-2-(2,3,5-trifluorophenyl)thiazole-4-carboxamide] | 9.90
22 | Cn1ncc(NC(=O)c2ccc(F)c(-c3c(F)cc(C4(O)CC4)cc3F)n2)c1[C@@H]1CC[C@@H](N)[C@H](F)CO1 [Example 204, N-(5-((2S,5R,6S)-5-amino-6-fluorooxepan-2-yl)-1-methyl-1H-pyrazol-4-yl)-6-(2,6-difluoro-4-(1-hydroxycyclopropyl)phenyl)-5-fluoropicolinamide] | 12.00
23 | CCc1ccc(F)c(-c2nc(C(=O)Nc3cnn(C)c3[C@@H]3CC[C@@H](N)[C@H](F)CO3)cs2)c1 [Example 307, N-(5-((2S,5R,6S)-5-amino-6-fluorooxepan-2-yl)-1-methyl-1H-pyrazol-4-yl)-2-(5-ethyl-2-fluorophenyl)thiazole-4-carboxamide] | 10.09
24 | Cn1ncc(NC(=O)c2csc(-c3cnn(CC(C)(C)O)c3)n2)c1[C@@H]1CC[C@@H](N)[C@H](F)CO1 [Example 228, N-(5-((2S,5R,6S)-5-amino-6-fluorooxepan-2-yl)-1-methyl-1H-pyrazol-4-yl)-2-(1-(2-hydroxy-2-methylpropyl)-1H-pyrazol-4-yl)thiazole-4-carboxamide] | 9.91
25 | Cn1ncc(NC(=O)c2nc(-c3cccc(Cl)c3F)sc2N)c1[C@@H]1CC[C@@H](N)[C@H](F)CO1 [Example 338, 5-amino-N-(5-((2S,5R,6S)-5-amino-6-fluorooxepan-2-yl)-1-methyl-1H-pyrazol-4-yl)-2-(3-chloro-2-fluorophenyl)thiazole-4-carboxamide] | 11.15
26 | Cn1ncc(NC(=O)c2nc(-c3c(F)cccc3F)sc2N)c1C1CC(F)C(N)CCO1 (stereo not drawn) [Example 140, 5-amino-N-(5-(5-amino-4-fluorooxepan-2-yl)-1-methyl-1H-pyrazol-4-yl)-2-(2,6-difluorophenyl)thiazole-4-carboxamide] | 9.33
27 | Cn1ncc(NC(=O)c2nc(-c3c(F)cccc3F)sc2N)c1C1CCC(O)CCO1 (stereo not drawn) [Example 134, 5-amino-2-(2,6-difluorophenyl)-N-[5-(5-hydroxyoxepan-2-yl)-1-methyl-pyrazol-4-yl]thiazole-4-carboxamide] | 10.27
28 | Cn1ncc(NC(=O)c2csc(-c3c(F)ccc(F)c3F)n2)c1[C@@H]1CC[C@@H](N)[C@@H](F)CO1 [Example 230, N-(5-((2S,5R,6R)-5-amino-6-fluorooxepan-2-yl)-1-methyl-1H-pyrazol-4-yl)-2-(2,3,6-trifluorophenyl)thiazole-4-carboxamide] | 10.51
29 | Cc1c(-c2nc(C(=O)Nc3cnn(C)c3[C@@H]3CC[C@@H](N)[C@H](F)CO3)cs2)cnn1C [Example 242, N-(5-((2S,5R,6S)-5-amino-6-fluorooxepan-2-yl)-1-methyl-1H-pyrazol-4-yl)-2-(1,5-dimethyl-1H-pyrazol-4-yl)thiazole-4-carboxamide] | 9.66
30 | Cn1ncc(NC(=O)c2nc(-c3c(F)cccc3F)sc2N)c1[C@H]1OC[C@@](C)(CN)CO1 [Example 178, 5-Amino-N-[5-[5-(aminomethyl)-5-methyl-1,3-dioxan-2-yl]-1-methyl-pyrazol-4-yl]-2-(2,6-difluorophenyl)thiazole-4-carboxamide] | 9.81
